Laboratory results as given in ChEMBL document CHEMBL3232784, “Fluorescent analog of OSW-1 and its cellular localization” (Bioorg Med Chem Lett, 2014).
Calls of active or inactive are those of the source. The calls are words filed in the database; no cut-off is given here.

Experiments:
HeLa [1] = test: Cytotoxicity against human HeLa cells after 24 hrs by XTT assay; assay type: functional, cell-based
[2] = Cellular uptake in perinuclear region of cytoplasm in human HeLa cells at 1 uM after 1 hr by fluorescence microscopic analysis; assay type: ADME, cell-based
[3] = Cytotoxicity against human NCI60 cells; assay type: functional, cell-based
[4] = Cellular uptake in human HeLa cell mitochondria at 1 uM by […]-based fluorescence microscopic analysis; assay type: ADME
HeLa [5] = test: Cellular uptake in human HeLa cells at 0.5 uM at 37 degC after 30 mins by fluorescence microscopic analysis; assay type: ADME, cell-based; conditions: 0.5 h
HeLa [6] = test: Cellular uptake in human HeLa cells at 0.5 uM at 4 degC after 30 mins by fluorescence microscopic analysis; assay type: ADME, cell-based; conditions: 0.5 h
[7] = Cellular uptake in perinuclear region of cytoplasm in human HeLa cells at 0.13 to 1 uM after 1 hr by fluorescence microscopic analysis; assay type: ADME, cell-based
HeLa [8] = test: Cellular uptake in human HeLa cell lysate at 1 uM after 1 hr by fluorescence spectroscopic analysis; assay type: ADME, cell-based
[9] = Cellular uptake in perinuclear region of cytoplasm in human HeLa cells at 0.5 uM after 10 mins by fluorescence microscopic analysis; assay type: ADME, cell-based
[10] = Cellular uptake in human HeLa cell endoplasmic reticulum at 1 uM by […] staining-based fluorescence microscopic analysis; assay type: ADME
[11] = Cellular uptake in human HeLa cell golgi complex at 1 uM by BODIPY TR-ceramide-based fluorescence microscopic analysis; assay type: ADME

Row | Drug uptake [2] | Drug uptake [4] | Drug uptake (HeLa [5]) | Drug uptake (HeLa [6]) | Drug uptake [7] | Drug uptake (HeLa [8]) | Drug uptake [9] | Drug uptake [10] | Drug uptake [11] | Structure (SMILES) | inhibition (HeLa [1]) | IC50 [3] [nM] | IC50 (HeLa [1]) [nM]
1 | Not Active |  |  |  |  |  |  |  |  | COC(=O)CN(C)c1ccc(S(=O)(=O)N(C)C)c2nonc12 | inactive |  | 
2 |  |  |  |  |  |  |  |  |  | COc1ccc(C(=O)O[C@H]2[C@H](O[C@@H]3[C@@H](OC(C)=O)[C@H](O[C@H]4C[C@H]5[C@@H]6CC=C7C[C@@H](O)CC[C@]7(C)[C@H]6CC[C@]5(C)[C@@]4(O)[C@H](C)C(=O)CCC(C)C)OC[C@@H]3O)OC[C@@H](O)[C@@H]2O)cc1 |  | 0.78 | 2.6
3 |  | Not Active | Active | Not Active | Active | Active | Active | Active | Active | COc1ccc(C(=O)O[C@H]2[C@H](O[C@@H]3[C@@H](OC(C)=O)[C@H](O[C@H]4C[C@H]5[C@@H]6CC=C7C[C@@H](O)CC[C@]7(C)[C@H]6CC[C@]5(C)[C@@]4(O)[C@H](C)C(=O)CCC(C)C)OC[C@@H]3O)OC[C@@H](O)[C@@H]2OC(=O)CN(C)c2ccc(S(=O)(=O)N(C)C)c3nonc23)cc1 |  |  | 5
